How the values were obtained:
LRRK2 kinase = molecular target: T1, LRRK2 kinase (Homo sapiens, UniProt Q5S007); assay: Biochemical assay for LRRK2 (coupled pyruvate kinase/lactate dehydrogenase assay); conditions: 26.4 nM LRRK2 (residues 970-2528), peptide substrate, 1 mM ATP
T1 construct: purchased Thermo Fisher
Description: Example 138. Biochemical Assay for LRRK2 (SEQ. ID NO: 4)
Activity of LRRK2 kinase was determined spectroscopically using a coupled pyruvate kinase/lactate dehydrogenase assay that continuously monitors the ATP hydrolysis-dependent oxidation of NADH (e.g., Schindler et al. Science (2000) 289: 1938-1942). Assays were conducted in 384-well plates (100 μL final volume) using 26.4 nM LRRK2 (Thermo Fisher), 0.1 mM peptide substrate ([…] (SEQ ID NO: 6)), 1.5 units pyruvate kinase, 2.1 units lactate dehydrogenase, 1 mM phosphoenol pyruvate, 0.28 mM NADH and 1 mM ATP in assay buffer (100 mM Tris, pH 7.5, 15 mM MgCl2, 0.5 mM DTT, 0.004% (w/v) BSA, and 0.004% Triton X-100). Inhibition of LRRK2 was measured by adding serial diluted test compound (final assay concentration of 1% DMSO). A decrease in absorption at 340 nm was monitored continuously for 6 hours at 30° C. on a multi-mode microplate reader (BioTek). The reaction rate was calculated using the 2-3 h time frame. The reaction rate at each concentration of compound was converted to percent inhibition using controls (i.e. reaction with no test compound and reaction with a known inhibitor) and IC50 values were calculated using software routines in Prism (GraphPad software).

ULK1 kinase = molecular target: T2, ULK1 kinase (Homo sapiens, UniProt O75385, E37A/K38A); assay: Biochemical assay for ULK1.3 (coupled pyruvate kinase/lactate dehydrogenase assay, peptide substrate); conditions: 0.1 nM ULK1 (residues 1-283), 1 mM ATP
T2 construct: purchased Beryllium
T2 sequence (O75385 1-283 E37A/K38A): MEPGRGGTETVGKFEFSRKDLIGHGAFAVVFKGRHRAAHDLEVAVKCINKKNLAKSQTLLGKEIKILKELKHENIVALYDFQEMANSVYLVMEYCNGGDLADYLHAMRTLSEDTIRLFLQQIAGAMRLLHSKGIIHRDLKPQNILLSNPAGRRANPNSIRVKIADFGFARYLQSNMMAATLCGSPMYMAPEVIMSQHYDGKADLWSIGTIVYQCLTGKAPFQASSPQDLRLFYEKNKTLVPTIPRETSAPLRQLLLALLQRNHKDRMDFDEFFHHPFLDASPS
Description: Biochemical Assay for ULK1.3 (SEQ. ID NO: 2)
Inhibition of ULK1 was measured by adding serial diluted test compound (final assay concentration of 1% DMSO). A decrease in absorption at 340 nm was monitored continuously for 6 hours at 30° C. on a multi-mode microplate reader (BioTek). The reaction rate was calculated using the 2-3 h time frame. The reaction rate at each concentration of compound was converted to percent inhibition using controls (i.e. reaction with no test compound and reaction with a known inhibitor) and IC50 values were calculated using software routines in Prism (GraphPad software).

ULK kinase [1] = assay: pATG13 levels of mutant KRas A549 cells after treatment with ULK inhibitors in combination with trametinib (ELISA); format: cell-based, human; conditions: A549 (KRAS mutant) lung cancer cells, 250 nM trametinib, overnight, pS318-ATG13
Description: Cellular Inhibition of ULK Kinase Substrate ATG13 Protein pATG13 Levels of Mutant KRas A549 Cells after Treatment with ULK Inhibitors in Combination with Trametinib
(§1) A549 (KRAS mutant) human lung cancer cells (6,000 cells/well) were added to a 384-well tissue-culture treated plate in 50 μL of pre-warmed DMEM medium supplemented with 10% characterized fetal bovine serum (Invitrogen, Carlsbad, Calif.), 100 units/mL penicillin G, and 100 μg/mL streptomycin and allowed to grow overnight at 37° C., 5% CO2, and 95% humidity. The following day, 10 μL of media containing trametinib or DMSO as a control was added to wells. […] A dose response of a test compound (0.6 μL per well) was added. DMSO (0.6 μL) was added to control wells. The plate was briefly shaken to mix wells and then incubated at 37° C. overnight. The next day, the media was aspirated and cells were washed with Dulbecco's Phosphate Buffered Saline (Gibco). Cells were lysed using MPER lysis buffer (Pierce, Rockford, Ill.) containing Halt Phosphatase and Protease Inhibitors (Pierce, Rockford, Ill.) and Phosphatase inhibitor cocktail 2 (Sigma, St. Louis, Mo.) at 4° C. for 10 minutes with shaking.
(§2) Plate wells were washed with ELISA wash buffer. Cell lysate was added to wells and incubated at room temperature for 2 hours. Plate wells were washed with ELISA wash buffer. […] Plate wells were washed with ELISA wash buffer. […] Plate wells were washed with ELISA wash buffer. […] The reaction was stopped with 2N Sulfuric Acid. The plate was analyzed at on a plate reader measuring absorbance at 450 nm and 540 nm (background). Signal was calculated by first subtracting the background absorbance at 540 nm from the absorbance at 450 nm for each well. Next, the background corrected absorbance at 450 nm from blank wells was subtracted from test wells. Data was compared to control wells to determine % ATG13 phosphorylation. GraphPad Prism was used to calculate IC50 values.

ULK kinase [2] = assay: pATG13 levels of mutant KRas MiaPaCa-2 cells after treatment with ULK inhibitors in combination with trametinib (ELISA); format: cell-based, human; conditions: MiaPaCa-2 pancreatic cancer cells, 250 nM trametinib, overnight, pS318-ATG13
Description: as §1, with “MiaPaCa-2” for “A549 (KRAS mutant)”, “pancreatic” for “lung”, “(10000” for “(6,000”, “G, 100 µg/mL streptomycin,” for “G,”, “2.5% Horse Serum” for “100 μg/mL streptomycin”
as §2

T1 sequence (Q5S007 with tags, fused parts or gaps): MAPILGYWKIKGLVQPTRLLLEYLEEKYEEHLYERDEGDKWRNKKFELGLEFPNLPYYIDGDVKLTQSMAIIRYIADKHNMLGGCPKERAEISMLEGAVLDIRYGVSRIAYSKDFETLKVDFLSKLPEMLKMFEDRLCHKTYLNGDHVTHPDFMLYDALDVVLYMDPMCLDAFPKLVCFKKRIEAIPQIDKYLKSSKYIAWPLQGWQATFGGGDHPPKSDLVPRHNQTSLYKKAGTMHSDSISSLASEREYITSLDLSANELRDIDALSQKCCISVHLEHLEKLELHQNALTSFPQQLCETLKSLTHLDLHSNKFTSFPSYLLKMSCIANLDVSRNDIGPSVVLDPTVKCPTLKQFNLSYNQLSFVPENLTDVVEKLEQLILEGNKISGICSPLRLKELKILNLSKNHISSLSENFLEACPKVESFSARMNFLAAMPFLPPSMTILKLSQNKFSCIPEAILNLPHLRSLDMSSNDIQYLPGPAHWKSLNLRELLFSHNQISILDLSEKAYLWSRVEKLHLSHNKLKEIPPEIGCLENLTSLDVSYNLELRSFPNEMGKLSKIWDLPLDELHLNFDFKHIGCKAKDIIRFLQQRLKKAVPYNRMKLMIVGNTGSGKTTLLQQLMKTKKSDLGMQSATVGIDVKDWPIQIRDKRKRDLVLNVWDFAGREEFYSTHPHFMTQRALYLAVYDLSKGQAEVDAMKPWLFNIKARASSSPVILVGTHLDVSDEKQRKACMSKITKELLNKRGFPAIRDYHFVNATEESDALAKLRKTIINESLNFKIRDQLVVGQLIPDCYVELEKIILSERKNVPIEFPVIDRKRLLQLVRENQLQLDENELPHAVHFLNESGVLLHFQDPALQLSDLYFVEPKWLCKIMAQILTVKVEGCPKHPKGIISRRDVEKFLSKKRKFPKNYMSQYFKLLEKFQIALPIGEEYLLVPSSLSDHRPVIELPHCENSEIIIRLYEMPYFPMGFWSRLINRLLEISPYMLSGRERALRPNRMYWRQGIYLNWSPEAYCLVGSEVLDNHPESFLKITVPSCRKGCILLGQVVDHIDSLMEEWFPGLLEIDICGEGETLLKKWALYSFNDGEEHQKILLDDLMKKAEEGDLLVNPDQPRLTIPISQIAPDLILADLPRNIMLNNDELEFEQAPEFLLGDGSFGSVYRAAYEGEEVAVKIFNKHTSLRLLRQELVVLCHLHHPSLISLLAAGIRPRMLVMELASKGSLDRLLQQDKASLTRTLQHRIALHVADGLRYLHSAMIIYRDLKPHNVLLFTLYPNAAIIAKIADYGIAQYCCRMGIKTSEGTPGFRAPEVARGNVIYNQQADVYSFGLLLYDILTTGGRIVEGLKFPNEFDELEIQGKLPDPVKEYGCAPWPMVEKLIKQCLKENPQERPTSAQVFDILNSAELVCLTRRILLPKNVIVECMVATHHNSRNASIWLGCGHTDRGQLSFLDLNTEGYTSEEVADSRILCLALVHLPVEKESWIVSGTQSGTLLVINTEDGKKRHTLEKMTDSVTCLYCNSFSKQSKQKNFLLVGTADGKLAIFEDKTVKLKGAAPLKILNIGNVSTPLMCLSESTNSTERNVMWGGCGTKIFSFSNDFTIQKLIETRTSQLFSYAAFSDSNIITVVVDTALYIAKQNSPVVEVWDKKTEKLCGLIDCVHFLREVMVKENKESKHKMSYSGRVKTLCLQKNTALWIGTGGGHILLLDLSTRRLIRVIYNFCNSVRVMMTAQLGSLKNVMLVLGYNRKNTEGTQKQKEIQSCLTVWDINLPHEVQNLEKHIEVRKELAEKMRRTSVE

Compound | IC50 (LRRK2 kinase) [nM] | IC50 (ULK1 kinase) [nM] | IC50 (ULK kinase [1]) [nM] | IC50 (ULK kinase [2]) [nM]
CC(C)c1cc(N2CCN(C)CC2)ccc1Nc1ncc(C(F)(F)F)c(NCCCN2CCCCC2=O)n1 [Example 33] | 300 to 600 | 1 to 25 | 100 to 300 | 10 to 100
CN1CCN(c2cc(C3CC3)c(Nc3ncc(C(F)(F)F)c(NCCCN4CCCCC4=O)n3)cc2F)CC1 [Example 35] | 1 to 100 | 25 to 100 | 100 to 300 | 100 to 300
CCc1cc(N2CC3CCC(C2)N3C)ccc1Nc1ncc(C(F)(F)F)c(NCCCN2CCCCC2=O)n1 [Example 68] | 100 to 300 | 1 to 25 | 10 to 100 | 10 to 100
CCc1cc(N2CCCN(C)CC2)ccc1Nc1ncc(C(F)(F)F)c(NCCCN2CCOCCC2=O)n1 [Example 79] | 100 to 300 | 1 to 25 | 100 to 300 | 10 to 100
CC(C)c1cc(N2CCN(C)CC2)ccc1Nc1ncc(Br)c(NCCCN2CCOCCC2=O)n1 [Example 87] | 300 to 600 | 25 to 100 | 300 to 600 | 300 to 600
CCc1cc(N2CCN(C)CC2)ccc1Nc1cc(NCCCN2CCOCCC2=O)c(C(F)(F)F)cn1 [Example 92] | > 600 | 1 to 25 | 300 to 600 | 100 to 300
O=C1CCOCCN1CCCNc1nc(Nc2ccc(N3CCN4CCC[C@@H]4C3)cc2C2CC2)ncc1C(F)(F)F [Example 107] | 100 to 300 | 1 to 25 | 10 to 100 | 10 to 100
CN1CCN(c2ccc(Nc3ncc(C(F)(F)F)c(NCCCN4CCCOC4=O)n3)c(C3CCCC3)c2)CC1 [Example 111] | 100 to 300 | 1 to 25 |  | 
CN1CCN(c2ccc(Nc3ncc(C(F)(F)F)c(NCCCN4CCOCCC4=O)n3)c(C3CCCC3)c2)CC1 [Example 112] | 100 to 300 | 1 to 25 | 100 to 300 | 100 to 300
CN1CCN(c2ccc(Nc3ncc(C(F)(F)F)c(NCCCN4CCCCC4=O)n3)c(C3CCCC3)c2)CC1 [Example 113] | 100 to 300 | 1 to 25 |  | 
CCc1cc(N2CCN(C)C(=O)C2)ccc1Nc1ncc(C(F)(F)F)c(NCCCN2CCCOC2=O)n1 [Example 114] | 1 to 100 | 25 to 100 |  | 
CCc1cc(N2CCN(C)C(=O)C2)ccc1Nc1ncc(C(F)(F)F)c(NCCCN2CCOCCC2=O)n1 [Example 115] | 100 to 300 | 100 to 500 |  | 
CN1C[C@@H]2C[C@H]1CN2c1ccc(Nc2ncc(C(F)(F)F)c(NCCCN3CCOCCC3=O)n2)c(C2CC2)c1 [Example 116] | 1 to 100 | 25 to 100 | 100 to 300 | 10 to 100
CN1C[C@@H]2C[C@H]1CN2c1ccc(Nc2ncc(C(F)(F)F)c(NCCCN3CCCOC3=O)n2)c(C2CC2)c1 [Example 117] | 1 to 100 | 25 to 100 | 100 to 300 | 10 to 100
CN(C)C1CN(c2ccc(Nc3ncc(Br)c(NCCCN4CCCCC4=O)n3)c(C3CC3)c2)C1 [Example 118] | 1 to 100 | 25 to 100 |  | 
CCc1cc(N2C[C@@H]3C[C@H]2CN3C)ccc1Nc1ncc(C(F)(F)F)c(NCCCN2CCOCCC2=O)n1 [Example 119] | 100 to 300 | 1 to 25 | 100 to 300 | 10 to 100
CCc1cc(N2C[C@@H]3C[C@H]2CN3C)ccc1Nc1ncc(C(F)(F)F)c(NCCCN2CCCOC2=O)n1 [Example 120] | 100 to 300 | 1 to 25 | 100 to 300 | 100 to 300
CCc1cc(N2CCN3CCC[C@H]3C2)ccc1Nc1ncc(C(F)(F)F)c(NCCCN2CCOCCC2=O)n1 [Example 122] | 1 to 100 | 1 to 25 | 300 to 600 | 100 to 300
CCc1cc(N2C[C@H]3C[C@@H]2CN3C)ccc1Nc1ncc(C(F)(F)F)c(NCCCN2CCCOC2=O)n1 [Example 123] | 100 to 300 | 1 to 25 | 10 to 100 | 
CCc1cc(N2C[C@H]3C[C@@H]2CN3C)ccc1Nc1ncc(C(F)(F)F)c(NCCCN2CCOCCC2=O)n1 [Example 124] | 100 to 300 | 1 to 25 | 10 to 100 | 10 to 100
CN1C[C@H]2C[C@@H]1CN2c1ccc(Nc2ncc(C(F)(F)F)c(NCCCN3CCOCCC3=O)n2)c(C2CC2)c1 [Example 125] | 1 to 100 | 1 to 25 | 10 to 100 | 10 to 100
CN(C)C1CN(c2ccc(Nc3ncc(C(F)(F)F)c(NCCCN4CCCCC4=O)n3)c(C3CC3)c2)C1 [Example 126] | 1 to 100 | 1 to 25 | 100 to 300 | 10 to 100
COCc1cc(N2CCN(C)CC2)ccc1Nc1ncc(C(F)(F)F)c(NCCCN2CCOCCC2=O)n1 [Example 127] | 300 to 600 | 1 to 25 | 100 to 300 | 100 to 300
CCc1cc(N2CCN(C)CC2)ccc1Nc1ncc(C#N)c(NCCCN2CCOCCC2=O)n1 [Example 129] | > 600 | 25 to 100 | 300 to 600 | 100 to 300
CN1CCN(c2ccc(Nc3ncc(C(F)(F)F)c(NCCCN4CCOCCC4=O)n3)c(Br)c2)CC1 [Example 131] | 100 to 300 | 1 to 25 | 100 to 300 | 300 to 600
CN1CCN(c2ccc(Nc3ncc(C(F)(F)F)c(NCCCN4CCOCCC4=O)n3)c(Cl)c2)CC1 [Example 132] | 1 to 100 | 1 to 25 | 100 to 300 | 10 to 100
COCc1cc(N2CCN(C)CC2)ccc1Nc1ncc(C(F)(F)F)c(NCCCN2CCCOC2=O)n1 [Example 147] | 300 to 600 | 1 to 25 | 100 to 300 | 100 to 300
CN1CCN(c2ccc(Nc3ncc(C(F)(F)F)c(NCCCN4CCC(C)(C)OC4=O)n3)c(C3CC3)c2)CC1 [Example 148] | 100 to 300 | 1 to 25 | 10 to 100 | 10 to 100
